Active and inactive are the calls of the source. No cut-off for these calls is given here.
Experiments:
[1] = tested on: Kidney; test: Release of H2S in mouse kidney homogenate at 10 to 300 uM measured for 10 mins by methylene blue formation assay; assay type: ADME, tissue-based; conditions: tissue homogenate, dose 10-300 µM
[2] = (§1) Antihistamine effect in HUVEC cells assessed as inhibition of histamine-induced tissue factor expression pretreated 30 mins before addition of his measured after 2 hrs after addition of TRIzol by spectrophotometry; assay type: functional, cell-based; conditions: Homo sapiens, HUVE
[3] = tested on: HUVE; test: as §1; assay type: functional, cell-based; conditions: Homo sapiens
[4] = tested on: Mus musculus; test: Antihistamine effect in mouse assessed as Inhibition of histamine-induced increase vascular leakage in skin tissue at 15 mg/kg, ip pretreated 30 mins before Evans blue injection followed by injected with histamine mouse euthanized and skin excised by Miles assay; assay type: functional, organism-based
[5] = tested on: Mus musculus; test: Antipruritic effect in mouse assessed as reduction in histamine-induced itching duration at 60 to 120 mg/kg ip pretreated 30 mins before histamine and recorded for 10 mins; assay type: functional; conditions: dose 60-120 mg/kg, 0.5 h
[6] = Toxicity in histamine-induced mouse itching mouse model assessed as reduction in locomotion at 60 to 120 mg/kg ip; assay type: organism-based; conditions: in vivo, dose 60-120 mg/kg
[7] = tested on: Mus musculus; test: Antipruritic effect in mouse assessed as reduction in histamine-induced itching duration at 15 mg/kg ip pretreated 30 mins before histamine and recorded for 10 mins; assay type: functional, organism-based
[8] = Toxicity in histamine-induced mouse itching mouse model assessed as reduction in locomotion at 15 mg/kg ip; assay type: organism-based; conditions: in vivo
[9] = tested on: Mus musculus; test: Antipruritic effect in mouse assessed as reduction in PAR-2-induced itching duration at 15 mg/kg ip pretreated 30 mins before histamine and recorded for 10 mins; assay type: functional, organism-based
[10] = Toxicity in mouse assessed as sedative effect by measuring reduction in locomotion at 70 mg/kg ip; assay type: organism-based; conditions: in vivo
[11] = Plasma concentration in mouse at 1 mg/kg, ip measured after 30 mins by LC-MS/MS analysis; assay type: ADME, organism-based
[12] = Drug metabolism in mouse assessed as fold increase in plasma HDZ at 50 mg/kg, ip by LC-MS/MS analysis; assay type: ADME, organism-based; conditions: in vivo
[13] = tested on: HepG2; test: Release of H2S in human HepG2 cells measured for 24 hrs by lead acetate method; assay type: ADME, cell-based; conditions: hepg2, 24 h, dose 0.5-3 mM
[14] = tested on: Mus musculus; test: Antipruritic effect in mouse assessed as reduction in histamine-induced itching duration at 3.5 mg/kg ip pretreated 30 mins before histamine and recorded for 10 mins relative to HDZ; assay type: functional, organism-based
[15] = tested on: Mus musculus; test: Antipruritic effect in mouse assessed as reduction in histamine-induced itching duration at 20 mg/kg ip pretreated 30 mins before histamine and recorded for 10 mins; assay type: functional, organism-based
[16] = tested on: Mus musculus; test: Antihistamine effect in mouse assessed as Inhibition of histamine-induced increase vascular leakage in skin tissue at 50 mg/kg, ip pretreated 30 mins before Evans blue injection followed by injected with histamine mouse euthanized and skin excised by Miles assay; assay type: functional, organism-based
[17] = tested on: Mus musculus; test: Antipruritic effect in mouse assessed as reduction in histamine-induced itching duration at 50 mg/kg ip pretreated 30 mins before histamine and recorded for 10 mins relative to CET; assay type: functional, organism-based
[18] = tested on: Mus musculus; test: Antipruritic effect in mouse assessed as reduction in PAR-2-induced itching duration at 50 mg/kg ip pretreated 30 mins before histamine and recorded for 10 mins; assay type: functional, organism-based
[19] = Drug metabolism in mouse assessed as fold increase in plasma CET at 50 mg/kg, ip by LC-MS/MS analysis; assay type: ADME, organism-based; conditions: in vivo
[20] = tested on: Mus musculus; test: Antihistamine effect in mouse assessed as Inhibition of histamine-induced increase vascular leakage in skin tissue at 10 mg/kg, ip pretreated 30 mins before Evans blue injection followed by injected with histamine mouse euthanized and skin excised by Miles assay; assay type: functional, organism-based
[21] = tested on: Mus musculus; test: Antipruritic effect in mouse assessed as reduction in histamine-induced itching duration at 10 mg/kg ip pretreated 30 mins before histamine and recorded for 10 mins; assay type: functional, organism-based
[22] = tested on: Mus musculus; test: Antipruritic effect in mouse assessed as reduction in histamine-induced itching duration at 30 mg/kg ip pretreated 30 mins before histamine and recorded for 10 mins; assay type: functional, organism-based
[23] = tested on: Mus musculus; test: Antipruritic effect in mouse assessed as reduction in PAR-2-induced itching duration at 10 mg/kg ip pretreated 30 mins before histamine and recorded for 10 mins; assay type: functional, organism-based
[24] = Plasma concentration in mouse at 10 mg/kg, ip measured after 30 mins by LC-MS/MS analysis
[25] = tested on: Mus musculus; test: Antihistamine effect in mouse assessed as Inhibition of histamine-induced increase vascular leakage in skin tissue at 1 mg/kg, ip pretreated 30 mins before Evans blue injection followed by injected with histamine mouse euthanized and skin excised by Miles assay; assay type: functional, organism-based
[26] = tested on: Mus musculus; test: Antipruritic effect in mouse assessed as reduction in histamine-induced itching duration at 1 mg/kg ip pretreated 30 mins before histamine and recorded for 10 mins; assay type: functional, organism-based
[27] = tested on: Mus musculus; test: Antipruritic effect in mouse assessed as reduction in histamine-induced itching duration at 5 mg/kg ip pretreated 30 mins before histamine and recorded for 10 mins; assay type: functional, organism-based
[28] = tested on: Mus musculus; test: Antipruritic effect in mouse assessed as reduction in PAR-2-induced itching duration at 1 mg/kg ip pretreated 30 mins before histamine and recorded for 10 mins; assay type: functional, organism-based
[29] = Toxicity in mouse assessed as sedative effect by measuring reduction in locomotion at 50 mg/kg ip; assay type: organism-based; conditions: in vivo

With CCOCCn1c(C2CCN(CCc3ccc(C(C)(C)C(=O)Oc4ccc(C(N)=S)cc4)cc3)CC2)nc2ccccc21 the Drug metabolism [1] was “Dose-Dependent Effect”.

In the case of NC(=S)c1ccc(OC(=O)CCC(=O)OCCOCCN2CCN(C(c3ccccc3)c3ccc(Cl)cc3)CC2)cc1 (stereo unspecified), the Drug metabolism [1] is reported as “Dose-Dependent Effect”, the IC50 [2] is reported as 599 nM and the inhibition [3] is reported as “Dose-Dependent Effect”. The inhibition [4] was “Active”, the “inhibition (INH)” value [5] was 100% and the Activity [6] was “Toxic”. For the same compound, the inhibition [7] was “Active”, the Activity [8] was “Non-Toxic” and the inhibition [9] was “Active”. For the same compound, the Activity [10] was “Non-Toxic”, the concentration at 0.5 h [11] was 36.1 ng/mL and the “fold change (FC)” value [12] was 15.

For C[C@H]1CN(C2CCC(C#N)(c3ccc(F)cc3)CC2)CC[C@@]1(C(=O)Oc1ccc(-c2cc(=S)ss2)cc1)c1ccccc1 (stereo partly specified), the Drug metabolism [1] was “Dose-Dependent Effect” and the Drug metabolism [13] was “Dose-Dependent Effect”.

With C[C@H]1CN(C2CCC(C#N)(c3ccc(F)cc3)CC2)CC[C@@]1(C(=O)Oc1ccc(C(N)=S)cc1)c1ccccc1 (stereo partly specified) the Drug metabolism [1] was “Dose-Dependent Effect”.

For CCOCCn1c(C2CCN(CCc3ccc(C(C)(C)C(=O)Oc4ccc(-c5cc(=S)ss5)cc4)cc3)CC2)nc2ccccc21, the Drug metabolism [1] was “Dose-Dependent Effect” and the Drug metabolism [13] was “Dose-Dependent Effect”.

With NC(=S)c1ccccc1 the inhibition [14] was “Active”.

In the case of Oc1ccc(-c2cc(=S)ss2)cc1, the inhibition [15] is reported as “Active”.

With O=C(COCCN1CCN(C(c2ccccc2)c2ccc(Cl)cc2)CC1)OCCCCCCOc1ccc(-c2cc(=S)ss2)cc1 (racemic) the Drug metabolism [1] was “Dose-Dependent Effect”.

With O=C(CCC(=O)Oc1ccc(-c2cc(=S)ss2)cc1)OCCOCCN1CCN(C(c2ccccc2)c2ccc(Cl)cc2)CC1 (racemic) the Drug metabolism [1] was “Dose-Dependent Effect”, the Drug metabolism [13] was “Dose-Dependent Effect” and the IC50 [2] was 5.5 nM. The inhibition [3] was “Dose-Dependent Effect”.

In the case of NC(=S)c1ccc(OCCCCCCOC(=O)COCCN2CCN(C(c3ccccc3)c3ccc(Cl)cc3)CC2)cc1 (racemic), the Drug metabolism [1] is reported as “Dose-Dependent Effect”, the IC50 [2] is reported as 7.9 nM and the inhibition [3] is reported as “Dose-Dependent Effect”.

For O=C(COCCN1CCN(C(c2ccccc2)c2ccc(Cl)cc2)CC1)OCCOc1ccc(-c2cc(=S)ss2)cc1 (racemic), the Drug metabolism [1] was “Dose-Dependent Effect”, the Drug metabolism [13] was “Dose-Dependent Effect” and the IC50 [2] was 812 nM. For the same compound, the inhibition [3] was “Dose-Dependent Effect”, the inhibition [16] was “Active” and the inhibition [17] was “Active”. For the same compound, the inhibition [18] was “Active” and the “fold change (FC)” value [19] was 3.

In the case of O=C(O)COCCN1CCN(C(c2ccccc2)c2ccc(Cl)cc2)CC1 (stereo unspecified) [CETIRIZINE], the IC50 [2] is reported as 169 nM, the inhibition [3] is reported as “Dose-Dependent Effect” and the inhibition [20] is reported as “Active”. For the same compound, the Activity [21] was “Active”, the Activity [22] was “Active” and the inhibition [23] was “Active”. For the same compound, the Activity [10] was “Toxic” and the concentration at 0.5 h [24] was 8460 ng/mL.

With OCCOCCN1CCN(C(c2ccccc2)c2ccc(Cl)cc2)CC1 (stereo unspecified) [HYDROXYZINE] the IC50 [2] was 4.87 nM, the inhibition [3] was “Dose-Dependent Effect” and the inhibition [25] was “Active”. The Activity [26] was “Active”, the Activity [27] was “Active” and the inhibition [28] was “Active”. For the same compound, the Activity [29] was “Toxic”.

From ChEMBL document CHEMBL5346951, “Novel H2S-Releasing Bifunctional Antihistamine Molecules with Improved Antipruritic and Reduced Sedative Actions” (J Med Chem, 2023)
